Reference: patent publication US4477443A, “Tylosin derivatives, their preparation and pharmaceutical compositions containing them” (Zaidan Hojin Biselbutsu Kagaku Kenkyu Kai (Microbial …, priority 1981, dated 1984)
In brackets after ≈: the same amount, converted by molar mass. Where two headings read alike, the source gives them in different places.

Experiments:
Assay type in all cases: cell-based
Staph. aureus 193 = test: antimicrobial activity (MIC), Table I; details: Staphylococcus aureus; Staph. aureus 193; read-out: MIC
E. coli K-12 LA 290 R 55 = test: antimicrobial activity (MIC), Table I; details: Escherichia coli
B. subtilis NRRL B-558 = test: antimicrobial activity (MIC), Table I; details: Bacillus subtilis, NRRLB558; B. subtilis NRRL B-558; read-out: MIC
Coryn. bovis 1810 = test: antimicrobial activity (MIC), Table I; details: Corynebacterium bovis; Coryn. bovis 1810; read-out: MIC
Pro. vulgaris OX-19 = test: antimicrobial activity (MIC), Table I; details: Proteus vulgaris, OX19
Sarcina lutea PCI 1001 = test: antimicrobial activity (MIC), Table I; details: Micrococcus luteus, PCI1001; Sarcina lutea PCI 1001; read-out: MIC
E. coli NIHJ = test: antimicrobial activity (MIC), Table I; details: Escherichia coli; E. coli NIHJ; read-out: MIC
Sal. enteritidis 1891 = test: antimicrobial activity (MIC), Table I; details: Salmonella enterica; Sal. enteritidis 1891; read-out: MIC
Staph. aureus MS 9861 = test: antimicrobial activity (MIC), Table I; details: Staphylococcus aureus, MS9861; Staph. aureus MS 9861; read-out: MIC
E. coli K-12 ML 1410 = test: antimicrobial activity (MIC), Table I; details: Escherichia coli, K12ML1410
E. coli K-12 R-5 = test: antimicrobial activity (MIC), Table I; details: Escherichia coli, K12R5; E. coli K-12 R-5; read-out: MIC
Staph. aureus 209 P = test: antimicrobial activity (MIC), Table I; details: Staphylococcus aureus; Staph. aureus 209 P; read-out: MIC
E. coli K-12 = test: antimicrobial activity (MIC), Table I; details: Escherichia coli, K12; E. coli K-12; read-out: MIC
Kleb. pneumoniae PCI 602 = test: antimicrobial activity (MIC), Table I; details: Klebsiella pneumoniae, PCI602; Kleb. pneumoniae PCI 602; read-out: MIC
[1] = test system: Shigella dysenteriae JS 11910; test: antimicrobial activity (MIC), Table I; details: JS11910
Staph. aureus 226 = test: antimicrobial activity (MIC), Table II; details: Staphylococcus aureus; Staph. aureus 226; read-out: MIC
Staph. aureus KC-11 = test: antimicrobial activity (MIC), Table II; details: Staphylococcus aureus, KC11; Staph. aureus KC-11; read-out: MIC
[2] = test system: Staph. epidermidis IID 886; test: antimicrobial activity (MIC), Table II; details: Staphylococcus epidermidis, IID886
Staph. aureus ATCC 6538P = test: antimicrobial activity (MIC), Table II; details: Staphylococcus aureus, ATCC6538P; Staph. aureus ATCC 6538P; read-out: MIC
B. subtilis ATCC 6633 = test: antimicrobial activity (MIC), Table II; details: Bacillus subtilis, ATCC6633
B. cereus = test: antimicrobial activity (MIC), Table II; details: Bacillus cereus

## CCC1OC(=O)CC(O)C(C)C(OC2OC(C)CC(N(C)C)C2O)C(CC=O)CC(C)C(=O)C=CC(C)=CC1CN1CCCCCCC1 (centres unmarked) [Example 19, 23,4'-dideoxy-23-heptamethyleneiminomycaminosyl tylonolide]
Staph. aureus 193
  MIC: 0.2 µg/mL (≈ 0.295 µM)
E. coli K-12 LA 290 R 55
  MIC: 0.39 µg/mL (≈ 0.576 µM)
B. subtilis NRRL B-558
  MIC: 0.39 µg/mL (≈ 0.576 µM)
Coryn. bovis 1810
  MIC: < 0.2 µg/mL
Pro. vulgaris OX-19
  MIC: 0.39 µg/mL (≈ 0.576 µM)
Sarcina lutea PCI 1001
  MIC: < 0.2 µg/mL
E. coli NIHJ
  MIC: 0.39 µg/mL (≈ 0.576 µM)
Sal. enteritidis 1891
  MIC: < 0.2 µg/mL
Staph. aureus MS 9861
  MIC: 0.78 µg/mL (≈ 1.15 µM)
E. coli K-12 ML 1410; E. coli K-12 ML 1410, read-out: MIC
  MIC: 0.78 µg/mL (≈ 1.15 µM)
E. coli K-12 R-5
  MIC: 0.78 µg/mL (≈ 1.15 µM)
Staph. aureus 209 P
  MIC: < 0.2 µg/mL
E. coli K-12
  MIC: 0.78 µg/mL (≈ 1.15 µM)
Kleb. pneumoniae PCI 602
  MIC: 0.2 µg/mL (≈ 0.295 µM)
[1]
  MIC: < 0.2 µg/mL

## CC[C@H]1OC(=O)C[C@@H](O)[C@H](C)[C@@H](O[C@@H]2O[C@H](C)[C@@H](O[C@H]3C[C@@](C)(O)[C@@H](O)[C@H](C)O3)[C@H](N(C)C)[C@H]2O)[C@@H](CC=O)C[C@@H](C)C(=O)/C=C/C(C)=C/[C@@H]1CO[C@@H]1O[C@H](C)[C@@H](O)[C@@H](OC)[C@H]1OC [Tylosin]
Staph. aureus 226
  MIC: 1.56 µg/mL (≈ 1.7 µM)
Staph. aureus 193
  MIC: 0.78 µg/mL (≈ 0.851 µM)
Staph. aureus KC-11
  MIC: 1.56 µg/mL (≈ 1.7 µM)
E. coli K-12 LA 290 R 55
  MIC: > 100 µg/mL
[2]
  MIC: 1.56 µg/mL (≈ 1.7 µM)
Coryn. bovis 1810
  MIC: 0.2 µg/mL (≈ 0.218 µM)
Pro. vulgaris OX-19
  MIC: > 100 µg/mL
Sarcina lutea PCI 1001
  MIC: < 0.2 µg/mL
E. coli K-12 ML 1410
  MIC: > 100 µg/mL
Staph. aureus ATCC 6538P
  MIC: 1.56 µg/mL (≈ 1.7 µM)
B. subtilis ATCC 6633
  MIC: 0.78 µg/mL (≈ 0.851 µM)
E. coli K-12 R-5
  MIC: > 100 µg/mL
B. cereus
  MIC: 0.78 µg/mL (≈ 0.851 µM)
E. coli K-12
  MIC: > 100 µg/mL
